The numbers were not newly measured in patent publication US6858612B1, “Use of tetrahydropteridine derivatives as no synthase inhibitors” (Vasopharm Buitech GmbH, priority 1994, dated 2005), which cites them from elsewhere.

SMILES strings stand for the structures.

The subject of this data set is NO synthases.

`CC1CNc2nc(N)[nH]c(=O)c2N1` (centres unmarked) [6-methyl-5,6,7,8-tetrahydropterin]: the “effect on NO synthase activity” value (Hevel and Marletta, Giovanelli et al. only at relatively high concentrations) was “increase in NO synthase activity”.
As for `C[C@H](O)[C@H](O)C1=Nc2c(nc(N)[nH]c2=O)NC1` [7,8-dihydrobiopterin], the “effect on NO production” value (literature reports (Kwon et al., Giovanelli et al., Overfeld et al.), concentration-dependent) is on record as “Stimulation of NO production”.
